tested on: Thoracic aorta; test: Vasodilatory activity in New Zealand White rabbit thoracic aorta assessed as relaxation of (-)-noradrenaline-induced contractile response at 1 uM relative to untreated control; assay type: functional, Oryctolagus cuniculus; design: scale not given: the % may be the effect or the level left; conditions: not given

| Structure (SMILES) | Activity |
| --- | --- |
| COC(=O)Cc1ccc(OCC(O)CN2CCN(c3ccc(C)c(C)c3)CC2)cc1 (stereo not given) | 28.4% |
| COC(=O)Cc1ccc(OCC(O)CN2CCN(c3ccc(OC)cc3)CC2)cc1 (stereo not given) | 7% |
| COC(=O)Cc1ccc(OCC(O)CN2CCN(c3ccc(Br)cc3)CC2)cc1 (stereo not given) | 16.6% |
| COC(=O)Cc1ccc(OCC(O)CN2CCN(c3ccccc3C)CC2)cc1 (stereo not given) | 62.3% |
| COC(=O)Cc1ccc(OCC(O)CN2CCN(c3ccc(C)c(Cl)c3)CC2)cc1 (stereo not given) | 25.9% |
| CCOc1cccc(N2CCN(CC(O)COc3ccc(CC(=O)OC)cc3)CC2)c1 (stereo not given) | 10.2% |
| COC(=O)Cc1ccc(OCC(O)CN2CCN(c3ccc(C)cc3)CC2)cc1 (stereo not given) | 28.7% |
| COC(=O)Cc1ccc(OCC(O)CN2CCN(c3cccc(C)c3)CC2)cc1 (stereo not given) | 36.9% |
| COC(=O)Cc1ccc(OCC(O)CN2CCN(c3ccc(C)cc3C)CC2)cc1 (stereo not given) | 43.3% |

tested on: Thoracic aorta; test: Vasodilatory activity in New Zealand White rabbit thoracic aorta assessed as relaxation of (-)-noradrenaline-induced contractile response at 0.1 uM relative to untreated control; assay type: functional, Oryctolagus cuniculus; design: scale not given: the % may be the effect or the level left; conditions: not given

| Structure (SMILES) | Activity |
| --- | --- |
| COC(=O)Cc1ccc(OCC(O)CN2CCN(c3ccc(C)c(C)c3)CC2)cc1 (stereo not given) | 8.9% |
| COC(=O)Cc1ccc(OCC(O)CN2CCN(c3ccc(OC)cc3)CC2)cc1 (stereo not given) | 6.3% |
| COC(=O)Cc1ccc(OCC(O)CN2CCN(c3ccc(Br)cc3)CC2)cc1 (stereo not given) | 7.9% |
| COC(=O)Cc1ccc(OCC(O)CN2CCN(c3ccccc3C)CC2)cc1 (stereo not given) | 27.3% |
| COC(=O)Cc1ccc(OCC(O)CN2CCN(c3ccc(C)c(Cl)c3)CC2)cc1 (stereo not given) | 19.5% |
| CCOc1cccc(N2CCN(CC(O)COc3ccc(CC(=O)OC)cc3)CC2)c1 (stereo not given) | 6.1% |
| COC(=O)Cc1ccc(OCC(O)CN2CCN(c3ccc(C)cc3)CC2)cc1 (stereo not given) | 15.3% |
| COC(=O)Cc1ccc(OCC(O)CN2CCN(c3cccc(C)c3)CC2)cc1 (stereo not given) | 14.8% |
| COC(=O)Cc1ccc(OCC(O)CN2CCN(c3ccc(C)cc3C)CC2)cc1 (stereo not given) | 13.7% |

molecular target: T1, Alpha-1A adrenergic receptor (Rattus norvegicus, UniProt P43140); test: Antagonist activity at alpha1A-adrenoreceptor in Sprague-Dawley rat vas deferens assessed as relaxation of (-)-noradrenaline-induced contractile response; assay type: functional; conditions: read-out: pA2 (converted)
T1 sequence (P43140 whole entry): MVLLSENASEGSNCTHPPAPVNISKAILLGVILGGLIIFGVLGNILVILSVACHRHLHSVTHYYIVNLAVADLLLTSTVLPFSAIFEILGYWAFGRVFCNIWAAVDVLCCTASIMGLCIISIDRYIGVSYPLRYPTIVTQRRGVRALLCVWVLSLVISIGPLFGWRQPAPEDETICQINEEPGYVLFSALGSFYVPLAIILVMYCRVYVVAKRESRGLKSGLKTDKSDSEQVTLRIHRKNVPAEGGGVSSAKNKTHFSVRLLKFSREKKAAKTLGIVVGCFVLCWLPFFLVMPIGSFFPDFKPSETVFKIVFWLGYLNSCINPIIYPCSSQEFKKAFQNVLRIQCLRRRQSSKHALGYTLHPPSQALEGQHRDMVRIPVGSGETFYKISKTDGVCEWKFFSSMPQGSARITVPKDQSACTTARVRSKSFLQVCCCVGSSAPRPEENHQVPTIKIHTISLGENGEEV

| Kb | Structure (SMILES) |
| --- | --- |
| 490 nM | COC(=O)Cc1ccc(OCC(O)CN2CCN(c3ccccc3C)CC2)cc1 (stereo not given) |

molecular target: T2, Alpha-1D adrenergic receptor (Rattus norvegicus, UniProt P23944); test: Antagonist activity at alpha1D-adrenoreceptor in Sprague-Dawley rat thoracic aorta assessed as relaxation of (-)-noradrenaline-induced contractile response; assay type: functional; conditions: read-out: pA2 (converted)
T2 sequence (P23944 whole entry): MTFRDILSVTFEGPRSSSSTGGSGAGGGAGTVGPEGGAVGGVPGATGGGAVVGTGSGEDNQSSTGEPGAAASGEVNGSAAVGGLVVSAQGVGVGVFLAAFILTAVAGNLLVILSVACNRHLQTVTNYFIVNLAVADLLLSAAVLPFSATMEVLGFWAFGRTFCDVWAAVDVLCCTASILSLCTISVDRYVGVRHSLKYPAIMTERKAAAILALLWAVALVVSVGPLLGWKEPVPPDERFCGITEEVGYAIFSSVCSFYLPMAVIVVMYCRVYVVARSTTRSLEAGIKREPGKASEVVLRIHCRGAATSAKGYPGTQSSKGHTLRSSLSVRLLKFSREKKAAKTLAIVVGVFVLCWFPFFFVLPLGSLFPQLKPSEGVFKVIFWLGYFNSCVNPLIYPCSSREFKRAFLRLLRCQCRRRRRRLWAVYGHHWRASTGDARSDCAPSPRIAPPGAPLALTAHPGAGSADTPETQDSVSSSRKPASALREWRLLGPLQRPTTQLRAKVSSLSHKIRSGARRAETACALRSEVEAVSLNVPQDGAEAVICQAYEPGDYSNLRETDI

| Kb | Structure (SMILES) |
| --- | --- |
| 20 nM | COC(=O)Cc1ccc(OCC(O)CN2CCN(c3ccccc3C)CC2)cc1 (stereo not given) |

tested on: Thoracic aorta; test: Vasodilatory activity in New Zealand White rabbit thoracic aorta assessed as relaxation of (-)-noradrenaline-induced contractile response at 10 uM relative to untreated control; assay type: functional, Oryctolagus cuniculus; design: scale not given: the % may be the effect or the level left; conditions: not given

| Structure (SMILES) | Activity |
| --- | --- |
| COC(=O)Cc1ccc(OCC(O)CN2CCN(c3ccc(C)c(C)c3)CC2)cc1 (stereo not given) | 70.2% |
| COC(=O)Cc1ccc(OCC(O)CN2CCN(c3ccc(OC)cc3)CC2)cc1 (stereo not given) | 15.8% |
| COC(=O)Cc1ccc(OCC(O)CN2CCN(c3ccc(Br)cc3)CC2)cc1 (stereo not given) | 43.5% |
| COC(=O)Cc1ccc(OCC(O)CN2CCN(c3ccccc3C)CC2)cc1 (stereo not given) | 99.3% |
| COC(=O)Cc1ccc(OCC(O)CN2CCN(c3ccc(C)c(Cl)c3)CC2)cc1 (stereo not given) | 38.7% |
| CCOc1cccc(N2CCN(CC(O)COc3ccc(CC(=O)OC)cc3)CC2)c1 (stereo not given) | 14.9% |
| COC(=O)Cc1ccc(OCC(O)CN2CCN(c3ccc(C)cc3)CC2)cc1 (stereo not given) | 56.7% |
| COC(=O)Cc1ccc(OCC(O)CN2CCN(c3cccc(C)c3)CC2)cc1 (stereo not given) | 63.5% |
| COC(=O)Cc1ccc(OCC(O)CN2CCN(c3ccc(C)cc3C)CC2)cc1 (stereo not given) | 92.7% |

molecular target: T3, Alpha-1B adrenergic receptor (Rattus norvegicus, UniProt P15823); test: Antagonist activity at alpha1B-adrenoreceptor in Sprague-Dawley rat spleen assessed as relaxation of (-)-noradrenaline-induced contractile response; assay type: functional; conditions: read-out: pA2 (converted)
T3 sequence (P15823 whole entry): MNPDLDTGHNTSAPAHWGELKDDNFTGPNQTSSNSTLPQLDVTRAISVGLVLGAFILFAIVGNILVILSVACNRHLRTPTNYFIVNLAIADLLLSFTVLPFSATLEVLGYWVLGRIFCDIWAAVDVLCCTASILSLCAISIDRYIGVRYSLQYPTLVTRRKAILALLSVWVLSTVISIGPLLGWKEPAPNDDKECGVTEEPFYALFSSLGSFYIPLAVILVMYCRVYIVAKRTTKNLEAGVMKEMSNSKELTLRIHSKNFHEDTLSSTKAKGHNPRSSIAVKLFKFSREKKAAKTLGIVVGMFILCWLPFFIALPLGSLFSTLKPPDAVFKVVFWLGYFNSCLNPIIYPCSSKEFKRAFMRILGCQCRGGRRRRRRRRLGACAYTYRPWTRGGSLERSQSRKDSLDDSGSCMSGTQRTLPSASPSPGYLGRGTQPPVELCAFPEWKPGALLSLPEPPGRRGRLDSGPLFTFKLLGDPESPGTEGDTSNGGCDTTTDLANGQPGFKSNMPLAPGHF

| Kb | Structure (SMILES) |
| --- | --- |
| 324 nM | COC(=O)Cc1ccc(OCC(O)CN2CCN(c3ccccc3C)CC2)cc1 (stereo not given) |

Reference: ChEMBL document CHEMBL4184267, “Novel naftopidil derivatives containing methyl phenylacetate and their blocking effects on α1D/1A-adrenoreceptor subtypes” (Bioorg Med Chem Lett, 2018)
